Patent US9062124B2, “GIP-based mixed agonists for treatment of metabolic disorders and obesity” (priority 2008, dated 2015)
“Also recorded” adds a separate entry of the source. Where a SMILES comes first, the peptide text is derived from it. Bridges are numbered along the chain shown (N, C = ends). [ ]: non-standard residue; d: D form. Aib = CC(C)(N)C(=O)O

Assays:
Assay type in all cases: cell-based
[1] = test system: glucagon receptor, GLP-1 receptor or GIP receptor; assay: Agonist profile across receptors assigned from the cAMP reporter assay data; conditions: assigned from the in vitro EC50 data of Tables 1-4
glucagon receptor = target: T1, glucagon receptor (Homo sapiens, UniProt P47871); assay: cAMP synthesis functional assay (firefly luciferase reporter in HEK293 cells), glucagon receptor; conditions: for EC50: Glucagon Receptor EC50, nM
T1 construct: expressed in transfected cells; host or cells: HEK293
T1 sequence (P47871 26-477): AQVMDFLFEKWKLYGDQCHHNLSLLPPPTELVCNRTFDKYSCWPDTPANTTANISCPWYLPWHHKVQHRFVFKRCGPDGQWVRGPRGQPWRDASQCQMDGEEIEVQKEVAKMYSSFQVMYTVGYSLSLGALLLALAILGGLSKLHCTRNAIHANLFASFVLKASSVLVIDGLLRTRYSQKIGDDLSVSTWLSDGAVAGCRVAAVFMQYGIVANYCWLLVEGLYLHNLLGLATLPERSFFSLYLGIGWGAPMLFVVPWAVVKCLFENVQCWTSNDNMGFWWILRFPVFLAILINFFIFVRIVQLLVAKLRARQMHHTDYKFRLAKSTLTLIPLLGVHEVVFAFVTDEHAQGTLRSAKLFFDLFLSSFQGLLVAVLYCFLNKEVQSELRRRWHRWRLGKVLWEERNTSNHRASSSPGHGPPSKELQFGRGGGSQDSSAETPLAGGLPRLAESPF

GLP-1 receptor = target: T2, GLP-1 receptor (Homo sapiens, UniProt P43220); assay: cAMP synthesis functional assay (firefly luciferase reporter in HEK293 cells), GLP-1 receptor
T2 construct: expressed in transfected cells; host or cells: HEK293
T2 sequence (P43220 24-463, species assumed): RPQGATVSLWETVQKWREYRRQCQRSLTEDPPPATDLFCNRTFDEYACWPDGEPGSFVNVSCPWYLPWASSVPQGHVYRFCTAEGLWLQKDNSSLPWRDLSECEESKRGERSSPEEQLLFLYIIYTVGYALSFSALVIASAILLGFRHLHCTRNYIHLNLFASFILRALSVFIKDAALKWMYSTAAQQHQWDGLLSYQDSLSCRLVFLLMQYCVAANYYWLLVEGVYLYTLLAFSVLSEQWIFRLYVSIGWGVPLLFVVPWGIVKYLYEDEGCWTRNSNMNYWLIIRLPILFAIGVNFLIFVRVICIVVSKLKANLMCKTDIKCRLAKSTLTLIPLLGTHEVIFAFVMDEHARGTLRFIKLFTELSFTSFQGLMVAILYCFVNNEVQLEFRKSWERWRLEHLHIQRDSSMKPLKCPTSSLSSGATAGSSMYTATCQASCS

GIP receptor = target: T3, GIP receptor (Homo sapiens, UniProt P48546); assay: cAMP synthesis functional assay (firefly luciferase reporter in HEK293 cells), GIP receptor
T3 construct: expressed in transfected cells; host or cells: HEK293
T3 sequence (P48546 22-466): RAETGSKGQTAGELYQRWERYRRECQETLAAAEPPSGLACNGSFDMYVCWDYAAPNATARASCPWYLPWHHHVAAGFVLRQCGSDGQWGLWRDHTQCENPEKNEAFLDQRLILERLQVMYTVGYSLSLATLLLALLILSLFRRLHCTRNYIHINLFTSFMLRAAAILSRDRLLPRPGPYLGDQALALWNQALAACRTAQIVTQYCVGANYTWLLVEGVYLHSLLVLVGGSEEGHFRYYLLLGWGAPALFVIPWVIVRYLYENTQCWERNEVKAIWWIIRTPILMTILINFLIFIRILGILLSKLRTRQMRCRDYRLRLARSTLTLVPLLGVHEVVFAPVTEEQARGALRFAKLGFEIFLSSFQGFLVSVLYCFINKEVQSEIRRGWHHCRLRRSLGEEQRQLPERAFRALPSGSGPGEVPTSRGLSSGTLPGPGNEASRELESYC

[2] = Table 1, relative to the native hormone of the indicated receptor
[3] = Table 2, linear peptides with AIB at position 16 and/or 20
[4] = GLP-1 Receptor EC50, nM, Table 2
[5] = relative to the standard (Std.) EC50 of the same run

| Structure (SMILES) | receptor activity profile (glucagon / GLP-1 / GIP agonism) [1] | EC50 (glucagon receptor; Table 1) [nM] | Glucagon Receptor relative activity (glucagon receptor; [2]) [%] | EC50 (GLP-1 receptor; GLP-1 Receptor EC50, nM, Table 1) [nM] | GLP-1 Receptor relative activity (GLP-1 receptor; [2]) [%] | EC50 (GIP receptor; GIP Receptor EC50, nM, Table 1) [nM] | GIP Receptor relative activity (GIP receptor; [2]) [%] | EC50 (glucagon receptor; [3]) [nM] | Glucagon Receptor relative activity (glucagon receptor; Table 2) [%] | EC50 (GLP-1 receptor; [4]) [nM] | GLP-1 Receptor relative activity (GLP-1 receptor; Table 2) [%] | EC50 (GIP receptor; GIP Receptor EC50, nM, Table 2) [nM] | GIP Receptor relative activity (GIP receptor; Table 2) [%] | Glucagon Receptor relative activity (glucagon receptor; [5]) [%] | GLP-1 Receptor relative activity (GLP-1 receptor; [5]) [%] | GIP Receptor relative activity (GIP receptor; [5]) [%] | EC50 (GLP-1 receptor; GLP-1 Receptor EC50, cAMP luciferase reporter assay as in Example 16) [nM] | EC50 (GIP receptor; GIP Receptor EC50, cAMP luciferase reporter assay as in Example 16) [nM] |
| --- | --- | --- | --- | --- | --- | --- | --- | --- | --- | --- | --- | --- | --- | --- | --- | --- | --- | --- |
| CC[C@H](C)[C@H](NC(=O)[C@H](CO)NC(=O)[C@H](Cc1ccc(O)cc1)NC(=O)[C@H](CC(=O)O)NC(=O)[C@H](CO)NC(=O)[C@@H](NC(=O)[C@H](Cc1ccccc1)NC(=O)[C@@H](NC(=O)CNC(=O)[C@H](CCC(=O)O)NC(=O)C(C)(C)NC(=O)[C@@H](N)Cc1ccc(O)cc1)[C@@H](C)O)[C@@H](C)O)C(=O)N[C@@H](Cc1ccc(O)cc1)C(=O)N[C@@H](CC(C)C)C(=O)N[C@@H](CC(=O)O)C(=O)N[C@H]1CCC(=O)NCCCC[C@@H](C(=O)N[C@@H](CCC(=O)O)C(=O)N[C@@H](Cc2ccccc2)C(=O)N[C@H](C(=O)N[C@@H](CC(N)=O)C(=O)N[C@@H](Cc2c[nH]c3ccccc23)C(=O)N[C@@H](CC(C)C)C(=O)N[C@@H](CC(C)C)C(=O)N[C@@H](C)C(=O)NCC(=O)N[C@@H](CCCNC(=N)N)C(=O)N2CCC[C@H]2C(=O)N[C@@H](CO)C(=O)N[C@@H](CO)C(=O)NCC(=O)N[C@@H](C)C(=O)N2CCC[C@H]2C(=O)N2CCC[C@H]2C(=O)N2CCC[C@H]2C(=O)N[C@@H](CO)C(=O)N[C@@H](CS)C(N)=O)C(C)C)NC(=O)[C@H](C)NC(=O)[C@H](C)NC(=O)[C@H](CCC(N)=O)NC1=O [mt-204] (H-Y[Aib]EGTFTSDYSIYLDEQAAKEFVNWLLAGRPSSGAPPPSC-NH2; lactam 16-20; N-terminus assumed) | exemplary GLP-1/GIP co-agonist peptides | 108 | 0.06 | 0.018 | 161.11 | 0.147 | 19.73 | – | – | – | – | – | – | – | – | – | – | – |
| CC[C@H](C)[C@H](NC(=O)[C@H](CO)NC(=O)[C@H](Cc1ccc(O)cc1)NC(=O)[C@H](CC(=O)O)NC(=O)[C@H](CO)NC(=O)[C@@H](NC(=O)[C@H](Cc1ccccc1)NC(=O)[C@@H](NC(=O)CNC(=O)[C@H](CCC(N)=O)NC(=O)C(C)(C)NC(=O)[C@@H](N)Cc1ccc(O)cc1)[C@@H](C)O)[C@@H](C)O)C(=O)N[C@@H](Cc1ccc(O)cc1)C(=O)N[C@@H](CC(C)C)C(=O)N[C@@H](CC(=O)O)C(=O)NC(C)(C)C(=O)N[C@@H](CCC(N)=O)C(=O)N[C@@H](C)C(=O)N[C@@H](C)C(=O)N[C@@H](CCC(N)=O)C(=O)N[C@@H](CCC(=O)O)C(=O)N[C@@H](Cc1ccccc1)C(=O)N[C@H](C(=O)N[C@@H](CC(N)=O)C(=O)N[C@@H](Cc1c[nH]c2ccccc12)C(=O)N[C@@H](CC(C)C)C(=O)N[C@@H](CC(C)C)C(=O)N[C@@H](C)C(=O)NCC(=O)NCC(=O)N1CCC[C@H]1C(=O)N[C@@H](CO)C(=O)N[C@@H](CO)C(=O)NCC(=O)N[C@@H](C)C(=O)N1CCC[C@H]1C(=O)N1CCC[C@H]1C(=O)N1CCC[C@H]1C(=O)N[C@@H](CO)C(=O)N[C@@H](CS)C(N)=O)C(C)C [mt-242] (H-Y[Aib]QGTFTSDYSIYLD[Aib]QAAQEFVNWLLAGGPSSGAPPPSC-NH2; N-terminus assumed) | exhibited activities of glucagon/GLP-1/GIP triagonists | – | – | – | – | – | – | 1.11 | 9.58 | 0.102 | 29.41 | 0.078 | 14.10 | – | – | – | – | – |
| CC[C@H](C)[C@H](NC(=O)[C@H](CO)NC(=O)[C@H](Cc1ccc(O)cc1)NC(=O)[C@H](CC(=O)O)NC(=O)[C@H](CO)NC(=O)[C@@H](NC(=O)[C@H](Cc1ccccc1)NC(=O)[C@@H](NC(=O)CNC(=O)[C@H](CCC(N)=O)NC(=O)C(C)(C)NC(=O)[C@@H](N)Cc1ccc(O)cc1)[C@@H](C)O)[C@@H](C)O)C(=O)N[C@@H](Cc1ccc(O)cc1)C(=O)N[C@@H](CC(C)C)C(=O)N[C@@H](CC(=O)O)C(=O)NC(C)(C)C(=O)N[C@@H](CCC(N)=O)C(=O)N[C@@H](C)C(=O)N[C@@H](C)C(=O)NC(C)(C)C(=O)N[C@@H](CCC(=O)O)C(=O)N[C@@H](Cc1ccccc1)C(=O)N[C@H](C(=O)N[C@@H](CC(N)=O)C(=O)N[C@@H](Cc1c[nH]c2ccccc12)C(=O)N[C@@H](CC(C)C)C(=O)N[C@@H](CC(C)C)C(=O)N[C@@H](C)C(=O)NCC(=O)NCC(=O)N1CCC[C@H]1C(=O)N[C@@H](CO)C(=O)N[C@@H](CO)C(=O)NCC(=O)N[C@@H](C)C(=O)N1CCC[C@H]1C(=O)N1CCC[C@H]1C(=O)N1CCC[C@H]1C(=O)N[C@@H](CO)C(=O)N[C@@H](CS)C(N)=O)C(C)C [mt-250] (H-Y[Aib]QGTFTSDYSIYLD[Aib]QAA[Aib]EFVNWLLAGGPSSGAPPPSC-NH2; N-terminus assumed) | exhibited activities of glucagon/GLP-1/GIP triagonists | – | – | – | – | – | – | – | 6.30 | – | 63.64 | – | 30.65 | – | – | – | – | – |
| CC[C@H](C)[C@H](NC(=O)[C@H](CO)NC(=O)[C@H](Cc1ccc(O)cc1)NC(=O)[C@H](CC(=O)O)NC(=O)[C@H](CO)NC(=O)[C@@H](NC(=O)[C@H](Cc1ccccc1)NC(=O)[C@@H](NC(=O)CNC(=O)[C@H](CCC(N)=O)NC(=O)C(C)(C)NC(=O)[C@@H](N)Cc1ccc(O)cc1)[C@@H](C)O)[C@@H](C)O)C(=O)N[C@@H](Cc1ccc(O)cc1)C(=O)N[C@@H](CC(C)C)C(=O)N[C@@H](CC(=O)O)C(=O)N[C@@H](CCC(=O)O)C(=O)N[C@@H](CCC(N)=O)C(=O)N[C@@H](C)C(=O)N[C@@H](C)C(=O)NC(C)(C)C(=O)N[C@@H](CCC(=O)O)C(=O)N[C@@H](Cc1ccccc1)C(=O)N[C@H](C(=O)N[C@@H](CC(N)=O)C(=O)N[C@@H](Cc1c[nH]c2ccccc12)C(=O)N[C@@H](CC(C)C)C(=O)N[C@@H](CC(C)C)C(=O)N[C@@H](C)C(=O)NCC(=O)NCC(=O)N1CCC[C@H]1C(=O)N[C@@H](CO)C(=O)N[C@@H](CO)C(=O)NCC(=O)N[C@@H](C)C(=O)N1CCC[C@H]1C(=O)N1CCC[C@H]1C(=O)N1CCC[C@H]1C(=O)N[C@@H](CO)C(=O)N[C@@H](CS)C(N)=O)C(C)C [mt-251] (H-Y[Aib]QGTFTSDYSIYLDEQAA[Aib]EFVNWLLAGGPSSGAPPPSC-NH2; N-terminus assumed) | exhibited activity of a GLP-1/GIP co-agonist | – | – | – | – | – | – | – | 1.52 | – | 140.00 | – | 57.58 | – | – | – | – | – |
| CC[C@H](C)[C@H](NC(=O)[C@H](CO)NC(=O)[C@H](Cc1ccc(O)cc1)NC(=O)[C@H](CC(=O)O)NC(=O)[C@H](CO)NC(=O)[C@@H](NC(=O)[C@H](Cc1ccccc1)NC(=O)[C@@H](NC(=O)CNC(=O)[C@H](CCC(N)=O)NC(=O)C(C)(C)NC(=O)[C@@H](N)Cc1ccc(O)cc1)[C@@H](C)O)[C@@H](C)O)C(=O)N[C@@H](Cc1ccc(O)cc1)C(=O)N[C@@H](CC(C)C)C(=O)N[C@@H](CC(=O)O)C(=O)N[C@@H](CCCCN)C(=O)N[C@@H](CCC(N)=O)C(=O)N[C@@H](C)C(=O)N[C@@H](C)C(=O)NC(C)(C)C(=O)N[C@@H](CCC(=O)O)C(=O)N[C@@H](Cc1ccccc1)C(=O)N[C@H](C(=O)N[C@@H](CC(N)=O)C(=O)N[C@@H](Cc1c[nH]c2ccccc12)C(=O)N[C@@H](CC(C)C)C(=O)N[C@@H](CC(C)C)C(=O)N[C@@H](C)C(=O)NCC(=O)NCC(=O)N1CCC[C@H]1C(=O)N[C@@H](CO)C(=O)N[C@@H](CO)C(=O)NCC(=O)N[C@@H](C)C(=O)N1CCC[C@H]1C(=O)N1CCC[C@H]1C(=O)N1CCC[C@H]1C(=O)N[C@@H](CO)C(=O)N[C@@H](CS)C(N)=O)C(C)C [mt-252] | exhibited activities of glucagon/GLP-1/GIP triagonists; also recorded: exhibited activity at the GIP, GLP-1, and glucagon receptors | – | – | – | – | – | – | 0.319 | 13.17 | 0.018 | 116.67 | 0.013 | 146.15 | 13.17 | 116.67 | 146.15 | – | – |
| CC[C@H](C)[C@H](NC(=O)[C@H](CO)NC(=O)[C@H](Cc1ccc(O)cc1)NC(=O)[C@H](CC(=O)O)NC(=O)[C@H](CO)NC(=O)[C@@H](NC(=O)[C@H](Cc1ccccc1)NC(=O)[C@@H](NC(=O)CNC(=O)[C@H](CCC(N)=O)NC(=O)C(C)(C)NC(=O)[C@@H](N)Cc1ccc(O)cc1)[C@@H](C)O)[C@@H](C)O)C(=O)N[C@@H](Cc1ccc(O)cc1)C(=O)N[C@@H](CC(C)C)C(=O)N[C@@H](CC(=O)O)C(=O)N[C@@H](CCCCN)C(=O)N[C@@H](CCC(N)=O)C(=O)N[C@@H](C)C(=O)N[C@@H](C)C(=O)NC(C)(C)C(=O)N[C@@H](CCC(=O)O)C(=O)N[C@@H](Cc1ccccc1)C(=O)N[C@H](C(=O)N[C@@H](CS)C(=O)N[C@@H](Cc1c[nH]c2ccccc12)C(=O)N[C@@H](CC(C)C)C(=O)N[C@@H](CC(C)C)C(=O)N[C@@H](C)C(=O)NCC(N)=O)C(C)C [mt-257] (H-Y[Aib]QGTFTSDYSIYLDKQAA[Aib]EFVCWLLAG-NH2; N-terminus assumed) | exhibited activity at the GIP, GLP-1, and glucagon receptors | – | – | – | – | – | – | – | – | – | – | – | – | 32.53 | 39.27 | 41.38 | 0.0303 | 0.0232 |
